The results in this text go back to US5852007A, “Cysteine and serine protease inhibitors containing D-amino acid at the P2 position, methods of making same, and methods of using same” (priority 1997, dated 1998).

The target in one assay is T1, α-chymotrypsin (Bos taurus, UniProt P00766).
T1 construct: purchased Sigma Chem. Co. C-3142
As to the kind of experiment: Inhibition of α-chymotrypsin. The assay is classed as biochemical. The conditions noted are these: Table II; 10 uM; read-out: Chymotrypsin % I @ 10 uM. Summed up: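 Enzyme added to inhibitor first, then reaction started with substrate; no calcium activation needed as enzyme is constitutively active. Fluorogenic substrate hydrolysis read every 5 min up to 30 min ([…]).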

A further assay concerns the target T2, thrombin (Homo sapiens, UniProt P00734).
T2 construct: purchased Sigma Chem. Co. T-7009
The assay can be described thus: Inhibition of thrombin. The assay is classed as biochemical. To be noted: Table II; 10 uM; read-out: Thrombin % I @ 10 uM.

The next assay has as its target T3, cathepsin L (Homo sapiens, UniProt P07711).
T3 construct: purchased Calbiochem 219402
As to the kind of experiment: Inhibition of cathepsin L. To be noted: Table II; read-out: Cat L IC50. It is filed as biochemical. The protocol:
(§1) Additionally,the order of reagents added to the plate was altered because both enzymes are constitutively active. Following inhibitor addition to the plates, appropriate 2× concentrated stock dilutions of the enzyme preparations were made in assay buffer and 100 μl added to each well. The assay was initiated by addition of 100 μl of 2× concentrated stock dilution of substrate in assay buffer.

The target in assay [1] is T4, Recombinant human calpain I (Homo sapiens, UniProt P07384).
T4 construct: made in house
T4 sequence (P07384 1-714): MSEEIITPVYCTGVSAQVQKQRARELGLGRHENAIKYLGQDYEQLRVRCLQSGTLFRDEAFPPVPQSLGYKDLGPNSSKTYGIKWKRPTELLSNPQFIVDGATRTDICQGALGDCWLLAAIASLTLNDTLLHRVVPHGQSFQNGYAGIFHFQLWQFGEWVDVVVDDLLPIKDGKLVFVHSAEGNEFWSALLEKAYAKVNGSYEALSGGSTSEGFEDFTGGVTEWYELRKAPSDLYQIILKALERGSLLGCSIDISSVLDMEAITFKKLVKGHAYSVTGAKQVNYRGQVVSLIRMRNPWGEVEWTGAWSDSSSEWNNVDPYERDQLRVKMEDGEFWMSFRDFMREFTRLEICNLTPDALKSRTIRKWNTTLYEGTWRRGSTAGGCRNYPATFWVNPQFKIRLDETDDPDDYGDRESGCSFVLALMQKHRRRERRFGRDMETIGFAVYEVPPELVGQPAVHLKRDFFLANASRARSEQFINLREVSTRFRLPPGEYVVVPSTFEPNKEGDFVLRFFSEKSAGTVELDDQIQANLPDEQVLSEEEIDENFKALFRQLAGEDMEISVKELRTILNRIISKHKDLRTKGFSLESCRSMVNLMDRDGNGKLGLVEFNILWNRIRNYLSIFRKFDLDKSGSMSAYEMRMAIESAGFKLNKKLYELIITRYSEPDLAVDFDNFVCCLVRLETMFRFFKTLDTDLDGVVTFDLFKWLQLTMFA
As to the kind of experiment: Rate of inactivation of calpain I (second order rate constant). The assay is classed as biochemical. To be noted: Table II, read-out: Calpain Inactivation Rates. The protocol:
To evaluate inhibitory activity, stock solutions (40 times concentrated) of exemplary compounds of the invention were prepared in 100% anhydrous DMSO and 5 μL of each inhibitor preparation were aliquoted into each of three wells of a 96-well plate. Recombinant human calpain I, prepared by the method of Meyer et al. (Biochem. J. 314: 511-519 (1996)), was diluted into assay buffer (i.e., 50 mM Tris, 50 mM NaCl, 1 mM EDTA, 1 mM EGTA, and 5 mM-mercaptoethanol, pH 7.5 including 0.2 mM Succ-Leu-TyrMNA) and 175 μL aliquoted into the same wells containing the independent inhibitor stocks as well as to positive control wells containing 5 μL DMSO, but no compound. To start the reaction, 20 μL of 50 mM CaCl2 in assay buffer was added to all wells of the plate, excepting three, which were used as background signal baseline controls. Substrate hydrolysis was monitored every 5 minutes for a total of 30 minutes. Substrate hydrolysis in the absence of inhibitor was linear for up to 15 minutes.
Inhibition of calpain I activity was calculated as the percent decrease in the rate of substrate hydrolysis in the presence of inhibitor (VI) relative to the rate in its absence (VO). Comparison between VO and VI was made within the linear range for substrate hydrolysis. For screening, compounds were tested at 10, 1.0, and 0.1 μM. Compounds having 50% inhibition at 10 μM were considered active. […] The results were plotted as % inhibition versus log inhibitor concentration and the IC50 was calculated from linear regression of the data. Apparent second order rate constants were determined from analysis of reaction progress curves under pseudo-first order conditions. Each determination represents the means of three or more independent single cuvette analyses continually monitored via a Perkin-Elmer LS50B spectrofluorimeter. […]
where y is the product formed at time t. […] The apparent second order rate constant kapp was determined as Kobs /[I]. […]

Assay [2] has as its target T4, Recombinant human calpain I. As to the kind of experiment: Inhibition of calpain I activity. The conditions noted are these: Table II. The assay is classed as biochemical.
For another assay, the system named is hippocampal CA1 neurons. The assay can be described thus: Survival of hippocampal CA1 neurons in gerbil global ischemia model. The assay is classed as in vivo.
For a further assay, the target named is T5, cathepsin B (Homo sapiens, UniProt P07858).
T5 construct: purchased Calbiochem 219364
As to the kind of experiment: Inhibition of cathepsin B. The conditions noted are these: Table II; read-out: Cat B IC50. The assay is classed as biochemical. The procedure:
as §1

The subject of a further assay is spectrin breakdown. As to the kind of experiment: Spectrin breakdown in gerbil global ischemia model (CA1 hippocampal sector, Western blotting). The assay is classed as in vivo. The conditions noted are these: FIG. 1. The protocol: Gerbils were anesthetized using 4% isolflurane volatilized using a gas mixture consisting of 30% O2 and 70% N2. After the induction of anesthesia, a preferred compound of the invention, compound 40 (Example 34), was administered either immediately before the induction of ischemia and 24 hours after the initiation of reperfusion (FIG. 2), or three hours after the initiation of reperfusion and 24 hours after the initiation of reperfusion (FIG. 3). To induce ischemia, the common carotid arteries were exposed and occluded bilaterally for 7 minutes. Gerbil core temperature was carefully regulated at 38° C. by a thermostatically controlled heat lamp. Reperfusion was initiated by the release of the arterial occlusion, whereupon anesthesia was terminated so that the gerbils began to breath room air. The neck incision was closed, and the gerbils were returned to the incubator for one hour to maintain their core temperature. At 1 hour of reperfusion, anesthesia was induced by inhalation of CO2 and the gerbils were sacrificed. The CA1 hippocampal sector was dissected using a hole punch (0.3 mm), and spectrin breakdown products (BDP) were determined by Western Blotting. Spectrin breakdown was quantified by image analysis, and percent inhibition was calculated by integrated optical density. […]

Square brackets hold non-standard residues; d marks the D form. Peptide text beside a SMILES is read from it. * marks the point of attachment. ξ: configuration not given here. ξF = NC(Cc1ccccc1)C(=O)O; Bn = c1ccc(C*)cc1; Ms = CS(=O)(=O)*; CH2F = FC*

The term IC50 denotes the concentration that gives 50% inhibition.

T3 sequence (P07711 114-288 limits assumed): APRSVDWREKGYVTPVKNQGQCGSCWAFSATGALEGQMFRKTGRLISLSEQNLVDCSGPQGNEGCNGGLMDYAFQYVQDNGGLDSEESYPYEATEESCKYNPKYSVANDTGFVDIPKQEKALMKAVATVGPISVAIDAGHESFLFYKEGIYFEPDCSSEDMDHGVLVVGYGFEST
T3 sequence (P07711 292-333 limits assumed): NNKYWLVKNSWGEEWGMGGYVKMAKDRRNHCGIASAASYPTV
Method for hippocampal CA1 neurons: Gerbils were anesthetized using 4% isolflurane volatilized using a gas mixture consisting of 30% O2 and 70% N2. […] To induce ischemia, the common carotid arteries were exposed and occluded bilaterally for 7 minutes. Gerbil core temperature was carefully regulated at 38° C. by a thermostatically controlled heat lamp. Reperfusion was initiated by the release of the arterial occlusion, whereupon anesthesia was terminated so that the gerbils began to breath room air. The neck incision was closed, and the gerbils were returned to the incubator for one hour to maintain their core temperature. At 1 hour of reperfusion, anesthesia was induced by inhalation of CO2 and the gerbils were sacrificed.
To quantify histopathological damage, the gerbils were returned to their home cages after one hour reperfusion in the incubator and then sacrificed, as described above, four days later. The brains were rapidly removed, frozen on dry ice, and then sectioned using a cryostat. Twenty micron sections were stained with thionin, and surviving neurons in the hippocampal CA1 sector were counted using computer assisted image analysis.

With `CS(=O)(=O)N[C@H](CC(=O)N1CCc2ccccc2C1)C(=O)NC(Cc1ccccc1)C(=O)CF` (stereo partly drawn) [Compound 20, THIQ-2-C(=O)CH2 CH(NHS(=O)2 CH3)C(=O)-Phe--CH2 F], the inhibition at 10 µM at α-chymotrypsin worked out at 7%; at thrombin, 0%. Moreover, at cathepsin L, the IC50 stood at 1800 nM. For the same compound, the kinact/KI in assay [1] worked out at 2800 M⁻¹ s⁻¹.
As to `CS(=O)(=O)N[C@H](CSCc1ccccc1)C(=O)NC(Cc1ccccc1)C(=O)CF` (stereo partly drawn) [Compound 33, BnS--CH2 CH(NHS(=O)2 CH3)C(=O)-Phe--CH2] (Ms-[dC](Bn)-[ξF]-CH2F), the inhibition at 10 µM at α-chymotrypsin amounted to 14%; on thrombin it was 0%. The kinact/KI in assay [1] is 26600 M⁻¹ s⁻¹.
On to `CS(=O)(=O)N[C@H](COCc1ccccc1)C(=O)NC(Cc1ccccc1)C(=O)CF` (stereo partly drawn) [Compound 34, BnO--CH2 CH(NHS(=O)2 CH3)C(=O)-Phe--CH2], for which the inhibition at 10 µM on α-chymotrypsin worked out at 14%; on thrombin, 0%. Moreover, the IC50 at cathepsin L came to 1800 nM. For the same compound, the kinact/KI in assay [1] was 21000 M⁻¹ s⁻¹.
With `CS(=O)(=O)N[C@H](COCc1ccccc1)C(=O)N[C@H](C=O)Cc1ccccc1` [Compound 40, BnO--CH2 CH(NHS(=O)2 CH3)C(=O)-Phe--H], the inhibition at 10 µM was 23% on α-chymotrypsin and 0% on thrombin. Further, the IC50 in assay [2] turned out to be 11 nM; on cathepsin L it was 9 nM; on cathepsin B it was 42 nM. Further, in the assay on hippocampal CA1 neurons (dosed immediately before ischemia and 24 hours after initiation of reperfusion, FIG. 2), the “number of surviving hippocampal CA1 neurons relative to controls” value is on record as “more than doubled the number of surviving hippocampal CA1 neurons”. Also, the “neuroprotection at four days after the ischemic insult” value with hippocampal CA1 neurons (dosed immediately before ischemia and 24 hours after initiation of reperfusion, p<0.01, FIG. 2) is reported as “neuroprotective at four days after the ischemic insult”. Also, the neuroprotective effect result in the assay with hippocampal CA1 neurons (dosed three hours and 24 hours after initiation of reperfusion, p<0.02, FIG. 3) is listed as “neuroprotective effect”. Besides, in the assay with spectrin breakdown, the “reduction of spectrin breakdown” value is on record as “approximately 50%”. Further, the “suppression of spectrin breakdown in CA1 hippocampal sectors” value in the assay with spectrin breakdown (vs vehicle-treated control gerbils, p<0.0001) is on record as “statistically significant suppression of spectrin breakdown”.
